The record followed here is ChEMBL document CHEMBL1201862, “PubChem BioAssay data set” (2004).

Each structure is given as a SMILES string.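 Cells were grown in 96-well plates and exposed to each compound for 48 hours at five concentrations; endpoints were interpolated linearly between bracketing concentrations, or set to the highest concentration if not reached. GI50 is the concentration that inhibits growth by half.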 Active and inactive are the calls of the source. Rule as the data show it: active = GI50 up to about 1.1 µM and inactive = higher.

Broadly, the GI50 is the concentration at which growth is held to half of that of the control.

Some test systems named below: A498; A549; EKVX; HCT-15; HOP-92; IGROV-1; KM12; MOLT-4; Malme-3M; NCI-H23; NCI-H460; OVCAR-5; OVCAR-8; RPMI-8226; SK-MEL-28; SNB-19; SNB-75; SW-620; U-251; UACC-62.
Experiment in all cases: DTP human tumour cell line panel, 48 h

Turning to `COc1cccc2c1C(=O)c1c(O)c3c(c(O)c1C2=O)CC(O)(C(=O)CO)CC3OC1CC(N)C(I)C(C)O1` (stereo not given), the GI50 with A498 was 3.53 µM (inactive); in the test on A549, 0.736 µM (active); in the test on EKVX, 14.4 µM (inactive); in the test with HCT-15 it was 1.83 µM; in the test with HOP-92, 9.68 µM (inactive); in the test on IGROV-1, 1.88 µM (inactive). Further, the GI50 was > 30.3 µM (inactive) in the test with KM12; 0.335 µM (active) in the test on MOLT-4; 6.05 µM (inactive) in the test on Malme-3M; 2.28 µM (inactive) in the test with NCI-H23; 0.313 µM (active) in the test with NCI-H460; 13.5 µM (inactive) in the test on OVCAR-5. Also, the GI50 with OVCAR-8 is 3.58 µM (inactive); with RPMI-8226, 4.5 µM (inactive); in the test on SK-MEL-28 it was 15.2 µM (inactive); with SNB-19 it was 3.12 µM (inactive); in the test with SNB-75, 2.52 µM (inactive); with SW-620 it was 3.08 µM (inactive). Also, the GI50 is 2.7 µM (inactive) in the test on U-251 and 1.58 µM (inactive) in the test on UACC-62.
